# Assay results from ChEMBL document CHEMBL2086308, “Cytotoxic 2-phenyacrylnitriles, the importance of the cyanide moiety and discovery of potent broad spectrum cytotoxic agents” (2012).
# Assays:
# Assay type in all cases: functional
# [1] = tested on: HT-29; assay: Growth inhibition of human HT-29 cells assessed as reduction in cell growth at 25uM after 72 hrs by MTT assay; settings: HT-29, 72 h, read-out: GI
# [2] = tested on: SW480; assay: Growth inhibition of human SW480 cells assessed as reduction in cell growth at 25uM after 72 hrs by MTT assay; settings: SW480, 72 h, read-out: GI
# [3] = tested on: MCF7; assay: Growth inhibition of human MCF7 cells assessed as reduction in cell growth at 25uM after 72 hrs by MTT assay; settings: MCF7, 72 h, read-out: GI
# [4] = tested on: A2780; assay: Growth inhibition of human A2780 cells assessed as reduction in cell growth at 25uM after 72 hrs by MTT assay; settings: A2780, 72 h, read-out: GI
# [5] = tested on: NCI-H460; assay: Growth inhibition of human H460 cells assessed as reduction in cell growth at 25uM after 72 hrs by MTT assay; settings: NCI-H460, 72 h, read-out: GI
# [6] = tested on: A-431; assay: Growth inhibition of human A431 cells assessed as reduction in cell growth at 25uM after 72 hrs by MTT assay; settings: A-431, 72 h, read-out: GI
# [7] = tested on: DU-145; assay: Growth inhibition of human DU145 cells assessed as reduction in cell growth at 25uM after 72 hrs by MTT assay; settings: DU-145, 72 h, read-out: GI
# [8] = Growth inhibition of human BE(2)-C cells assessed as reduction in cell growth at 25uM after 72 hrs by MTT assay; settings: read-out: GI
# [9] = Growth inhibition of human SJ-G2 cells assessed as reduction in cell growth at 25uM after 72 hrs by MTT assay; settings: SJ-G2, 72 h, read-out: GI
# [10] = tested on: MIA PaCa-2; assay: Growth inhibition of human MIAPaCa2 cells assessed as reduction in cell growth at 25uM after 72 hrs by MTT assay; settings: MIA PaCa-2, 72 h, read-out: GI
# [11] = Growth inhibition of mouse SMA cells assessed as reduction in cell growth at 25uM after 72 hrs by MTT assay; settings: read-out: GI
# [12] = tested on: MCF7; assay: Growth inhibition of human MCF7 cells assessed as reduction in cell growth after 72 hrs by MTT assay; settings: MCF7, 72 h
# [13] = tested on: HT-29; assay: Growth inhibition of human HT-29 cells assessed as reduction in cell growth after 72 hrs by MTT assay; settings: HT-29, 72 h
# [14] = tested on: SW480; assay: Growth inhibition of human SW480 cells assessed as reduction in cell growth after 72 hrs by MTT assay; settings: SW480, 72 h
# [15] = tested on: A2780; assay: Growth inhibition of human A2780 cells assessed as reduction in cell growth after 72 hrs by MTT assay; settings: A2780, 72 h
# [16] = tested on: NCI-H460; assay: Growth inhibition of human H460 cells assessed as reduction in cell growth after 72 hrs by MTT assay; settings: NCI-H460, 72 h
# [17] = tested on: A-431; assay: Growth inhibition of human A431 cells assessed as reduction in cell growth after 72 hrs by MTT assay; settings: A-431, 72 h
# [18] = tested on: DU-145; assay: Growth inhibition of human DU145 cells assessed as reduction in cell growth after 72 hrs by MTT assay; settings: DU-145, 72 h
# [19] = Growth inhibition of human BE(2)-C cells assessed as reduction in cell growth after 72 hrs by MTT assay
# [20] = Growth inhibition of human SJ-G2 cells assessed as reduction in cell growth after 72 hrs by MTT assay; settings: SJ-G2, 72 h
# [21] = tested on: MIA PaCa-2; assay: Growth inhibition of human MIAPaCa2 cells assessed as reduction in cell growth after 72 hrs by MTT assay; settings: MIA PaCa-2, 72 h
# [22] = Growth inhibition of mouse SMA cells assessed as reduction in cell growth after 72 hrs by MTT assay
GI50 [12],GI50 [13],GI50 [14],GI50 [15],GI50 [16],GI50 [17],GI50 [18],GI50 [21],Compound,inhibition of growth at 25 µM [1],inhibition of growth at 25 µM [2],inhibition of growth at 25 µM [3],inhibition of growth at 25 µM [4],inhibition of growth at 25 µM [5],inhibition of growth at 25 µM [6],inhibition of growth at 25 µM [7],inhibition of growth at 25 µM [8],inhibition of growth at 25 µM [9],GI50 [19],GI50 [20],GI50 [22],also measured
–,–,–,–,–,–,–,–,COc1ccc(/C=C(\C(=O)O)c2ccc(Cl)c(Cl)c2)cc1,11%,< 10%,< 10%,< 10%,< 10%,< 10%,< 10%,< 10%,< 10%,–,–,–,inhibition of growth at 25 µM [10]: < 10%; inhibition of growth at 25 µM [11]: < 10%
7 µM,36 µM,45 µM,38 µM,52 µM,39 µM,42 µM,46 µM,N#C/C(=C\c1ccco1)c1ccc(Cl)c(Cl)c1,–,–,–,–,–,–,–,–,–,38 µM,50 µM,36 µM,–
–,–,–,–,–,–,–,–,N#C/C(=C\c1cc2ccccc2o1)c1ccc(Cl)c(Cl)c1,43%,43%,40%,49%,36%,54%,14%,20%,46%,–,–,–,inhibition of growth at 25 µM [10]: 47%; inhibition of growth at 25 µM [11]: 55%
31 µM,35 µM,49 µM,41 µM,36 µM,53 µM,45 µM,35 µM,N#C/C(=C\c1ccc(C(F)(F)F)cc1)c1ccc(Cl)c(Cl)c1,–,–,–,–,–,–,–,–,–,43 µM,41 µM,45 µM,–
6.5 µM,9.3 µM,5.6 µM,9.5 µM,10 µM,10 µM,18 µM,11 µM,N#C/C(=C\c1ccc(F)cc1)c1ccc(Cl)c(Cl)c1,–,–,–,–,–,–,–,–,–,13 µM,16 µM,–,–
–,–,–,–,–,–,–,–,N#C/C(=C\c1ccc(-c2ccccc2)o1)c1ccc(Cl)c(Cl)c1,15%,< 10%,< 10%,13%,11%,< 10%,< 10%,< 10%,< 10%,–,–,–,inhibition of growth at 25 µM [10]: < 10%; inhibition of growth at 25 µM [11]: < 10%
0.23 µM,0.36 µM,0.67 µM,0.41 µM,0.39 µM,0.37 µM,1.04 µM,0.5 µM,N#C/C(=C\c1ccc2[nH]ccc2c1)c1ccc(Cl)c(Cl)c1,–,–,–,–,–,–,–,–,–,0.33 µM,0.83 µM,0.74 µM,–
6.9 µM,7 µM,8.2 µM,6.8 µM,7.5 µM,7.3 µM,13 µM,9 µM,N#C/C(=C\c1c[nH]c2ccc(Br)cc12)c1ccc(Cl)c(Cl)c1,–,–,–,–,–,–,–,–,–,7 µM,10 µM,9.2 µM,–
–,–,–,–,–,–,–,–,N#C/C(=C\c1ccc(CO)o1)c1ccc(Cl)c(Cl)c1,41%,< 10%,27%,25%,30%,< 10%,< 10%,< 10%,27%,–,–,–,inhibition of growth at 25 µM [10]: < 10%; inhibition of growth at 25 µM [11]: 16%
3.7 µM,2.8 µM,4.7 µM,3.2 µM,3 µM,3 µM,7.4 µM,3.7 µM,Cc1ccc2[nH]cc(/C=C(\C#N)c3ccc(Cl)c(Cl)c3)c2c1,–,–,–,–,–,–,–,–,–,3.4 µM,5.3 µM,4.1 µM,–
4 µM,4.2 µM,7.5 µM,3.7 µM,5 µM,3 µM,8.7 µM,6.1 µM,N#C/C(=C\c1c[nH]c2c1ccc1ccccc12)c1ccc(Cl)c(Cl)c1,–,–,–,–,–,–,–,–,–,3.8 µM,6.8 µM,5.9 µM,–
1.3 µM,0.85 µM,2.1 µM,0.9 µM,1 µM,0.8 µM,3.1 µM,1.6 µM,N#C/C(=C\c1c[nH]c2ccccc12)c1ccc(Cl)c(Cl)c1,–,–,–,–,–,–,–,–,–,1 µM,1.7 µM,1.3 µM,–
–,–,–,–,–,–,–,–,O=C(O)/C(=C\c1ccc([N+](=O)[O-])cc1)c1ccc(Cl)c(Cl)c1,28%,< 10%,11%,< 10%,< 10%,< 10%,< 10%,< 10%,< 10%,–,–,–,inhibition of growth at 25 µM [10]: < 10%; inhibition of growth at 25 µM [11]: < 10%
0.6 µM,0.52 µM,1.4 µM,0.7 µM,0.7 µM,0.6 µM,1.4 µM,0.7 µM,COc1ccc(/C=C(\C#N)c2ccc(Cl)c(Cl)c2)cc1,–,–,–,–,–,–,–,–,–,2.7 µM,1.5 µM,–,–
–,–,–,–,–,–,–,–,Cc1ccc(/C=C(\C#N)c2ccc(Cl)c(Cl)c2)o1,58%,47%,68%,43%,40%,46%,< 10%,50%,32%,–,–,–,inhibition of growth at 25 µM [10]: 36%; inhibition of growth at 25 µM [11]: 33%
2.3 µM,7.1 µM,8.8 µM,7.4 µM,8.7 µM,7.7 µM,12 µM,11 µM,N#C/C(=C\c1c[nH]c2ccc(Cl)cc12)c1ccc(Cl)c(Cl)c1,–,–,–,–,–,–,–,–,–,8.6 µM,9.7 µM,6.7 µM,–
–,–,–,–,–,–,–,–,N#C/C(=C\c1c[nH]c2ccc(C#N)cc12)c1ccc(Cl)c(Cl)c1,57%,43%,38%,47%,33%,34%,18%,50%,44%,–,–,–,inhibition of growth at 25 µM [10]: 43%; inhibition of growth at 25 µM [11]: 44%
2.8 µM,1.9 µM,3.8 µM,2.2 µM,2.2 µM,2.1 µM,5.6 µM,2.4 µM,Cc1[nH]c2ccccc2c1/C=C(\C#N)c1ccc(Cl)c(Cl)c1,–,–,–,–,–,–,–,–,–,2 µM,4 µM,2.9 µM,–
0.127 µM,3.1 µM,8.4 µM,12 µM,69 µM,7.1 µM,18 µM,27 µM,N#C/C(=C\c1ccc([N+](=O)[O-])cc1)c1ccc(Cl)c(Cl)c1,–,–,–,–,–,–,–,–,–,8.9 µM,14 µM,–,–
